Experiment: wn = mass fraction of the nth substance listed
Conditions: 100 kPa, Liquid; for mass density: Vibrating tube method; for viscosity: Concentric cylinders viscometry

C[C@H](O)C(=O)[O-].C[N+](C)(C)CCO + O
Conditions	mass density [kg/m3]	viscosity [mPa·s]
318.15 K, w2 = 0.004	1125.4	–
318.15 K, w2 = 0.011	1125.9	–
318.15 K, w2 = 0.02	1126.1	–
318.15 K, w2 = 0.029	1125.5	–
318.15 K, w2 = 0.045	1124.7	–
318.15 K, w2 = 0.066	1123.8	–
318.15 K, w2 = 0.077	1123.3	–
318.15 K, w2 = 0.121	1121	–
318.15 K, w2 = 0.167	1119.5	–
318.15 K, w2 = 0.218	1115.2	–
318.15 K, w2 = 0.24	1111.2	–
323.15 K, w2 = 0.004	1122.3	369.4
323.15 K, w2 = 0.011	1122.7	296.2
323.15 K, w2 = 0.02	1123	197.4
323.15 K, w2 = 0.029	1122.4	184.4
323.15 K, w2 = 0.045	1121.6	130.6
323.15 K, w2 = 0.066	1120.8	90.4
323.15 K, w2 = 0.077	1120.2	74.1
323.15 K, w2 = 0.121	1118	41.5
323.15 K, w2 = 0.167	1116.3	27.4
323.15 K, w2 = 0.218	1112	17.9
323.15 K, w2 = 0.24	1108	13.2
328.15 K, w2 = 0.004	1119.2	275.9
328.15 K, w2 = 0.011	1119.8	223.5
328.15 K, w2 = 0.02	1120.1	151.8
328.15 K, w2 = 0.029	1119.4	142.3
328.15 K, w2 = 0.045	1118.6	102.3
328.15 K, w2 = 0.066	1117.7	71.9
328.15 K, w2 = 0.077	1117.1	59.3
328.15 K, w2 = 0.121	1114.9	33.9
328.15 K, w2 = 0.167	1113.2	22.7
328.15 K, w2 = 0.218	1108.8	15
328.15 K, w2 = 0.24	1104.8	11.2
333.15 K, w2 = 0.004	1116.3	210.2
333.15 K, w2 = 0.011	1116.8	171.9
333.15 K, w2 = 0.02	1117.1	118.9
333.15 K, w2 = 0.029	1116.5	111.7
333.15 K, w2 = 0.045	1115.6	81.4
333.15 K, w2 = 0.066	1114.7	58
333.15 K, w2 = 0.077	1114.1	48.2
333.15 K, w2 = 0.121	1111.8	28.1
333.15 K, w2 = 0.167	1110	19
333.15 K, w2 = 0.218	1105.6	12.7
333.15 K, w2 = 0.24	1101.5	9.5
338.15 K, w2 = 0.004	1113.3	163.1
338.15 K, w2 = 0.011	1114	134.6
338.15 K, w2 = 0.02	1114.2	94.6
338.15 K, w2 = 0.029	1113.6	89
338.15 K, w2 = 0.045	1112.6	65.8
338.15 K, w2 = 0.066	1111.8	47.5
338.15 K, w2 = 0.077	1111.2	39.7
338.15 K, w2 = 0.121	1108.6	23.5
338.15 K, w2 = 0.167	1106.8	16.1
338.15 K, w2 = 0.218	1102.4	11
338.15 K, w2 = 0.24	1098.3	8.3
343.15 K, w2 = 0.004	1110.2	128.7
343.15 K, w2 = 0.011	1111	106.9
343.15 K, w2 = 0.02	1111.3	76.3
343.15 K, w2 = 0.029	1110.7	72
343.15 K, w2 = 0.045	1109.8	53.8
343.15 K, w2 = 0.066	1108.8	39.3
343.15 K, w2 = 0.077	1108.1	33.1
343.15 K, w2 = 0.121	1105.5	19.9
343.15 K, w2 = 0.167	1103.7	13.8
343.15 K, w2 = 0.218	1099.2	9.5
343.15 K, w2 = 0.24	1095	7.3

Source: the NIST ThermoML archive (doi:10.1016/j.jct.2014.12.020)
